This note sets out measurements from US6465491B2, “6-phenylpyridyl-2-amine derivatives” (Pfizer Inc., priority 1996, dated 2002).

Where a name gives a salt, the structure may show the parent alone. Where only a bound is given, the exact number is not on record here.

One may read the melting point as the temperature of the solid-liquid transition. `Cc1ccc(NC(=O)N2CCN(CCc3ccc(-c4cccc(N)n4)cc3)CC2)cc1` [Example 30, 4-{2-[4-(6-Amino-pyridin-2-yl)-phenyl]-ethyl}-piperazine-1-carboxylic acid p-tolyl-amide] came in with a melting point of 160 to 162 °C.

Consider `Nc1cccc(-c2ccc(CCN3CCC4(CC3)NC(=O)N(Cc3ccccc3)C4=O)cc2)n1` (as salt: hydrochloride) [Example 43, 8-{2-[4-(6-Amino-pyridin-2-yl)-phenyl]-ethyl}-3-benzyl-1,3,8-triaza-spiro[4.5]decane-2,4-dione], for which the melting point was 190 °C (dec.).

For the compound `CC(C)NC(=O)CN1CCN(CCc2ccc(-c3cccc(N)n3)cc2)CC1` [Example 23, 2-(4-{2-[4-(6-Amino-pyridin-2-yl)-phenyl]-ethyl}-piperazin-1-yl)-N-isopropyl-acetamide], the melting point fell in the range of 163 to 165 °C.

As to `Nc1cccc(-c2ccc(CCNC3CC4COCC(C3)N4)cc2)n1` (stereo not shown) (as salt: hydrochloride) [104], the melting point is 100 °C (dec.).

In the case of `Nc1cccc(-c2ccc(CCN3CCC(NC(=O)Cc4ccc(F)cc4)CC3)cc2)n1` (as salt: hydrochloride) [Example 65, N-(1-{2-[4-(6-Amino-pyridin-2-yl)-phenyl]-ethyl}-piperidin-4-yl)-2-(4-fluoro-phenyl)-acetamide], the melting point was 170 °C (dec.).

As for `Nc1cccc(-c2ccc(CCNC3CC4CCC(C3)N4)cc2)n1` (stereo not shown) (as salt: hydrochloride), the melting point was 170 °C (dec.).

The compound `Nc1cccc(-c2ccc(CCN3CCC(N)CC3)cc2)n1` (as salt: trifluoroacetate) [Example 67, 6-{4-[2-(4-Amino-piperidin-1-yl)-ethyl]-phenyl}-pyridin-2-ylamine] showed a melting point of 190 to 195 °C.

Compound `Cc1cc(N)nc(-c2ccc(CCN3CCN(CCc4ccccc4)CC3)cc2)c1` (as salt: hydrochloride) [Example 128, 6-{4-[2-(4-Phenethyl-piperazin-1-yl)-ethyl]-phenyl}-4-methyl-pyridin-2-ylamine] yielded a melting point of 242 to 250 °C.

Regarding `COCC(=O)N1CCN(CCc2ccc(-c3cccc(N)n3)cc2)CC1` [Example 11, 1-(4-{2-[4-(6-Amino-pyridin-2-yl)-phenyl]-ethyl}-piperazin-1-yl)-2-methoxy-ethanone], the melting point was 148 to 150 °C.

With `Nc1cccc(-c2ccc(CCNC3CC4CCC(C3)N4Cc3ccc(Cl)cc3)cc2)n1` (stereo not shown) (as salt: hydrochloride), the melting point is 198 °C (dec.).

The compound `CN(C)C1CCN(CCc2ccc(-c3cccc(N)n3)cc2)CC1` [Example 21, 6-{4-[2-(4-Dimethylamino-piperidin-1-yl)-ethyl]-phenyl}-pyridin-2-ylamine] came in with a melting point of 174 to 176 °C.

`Nc1cccc(-c2ccc(CNC3Cc4ccccc4C3)cc2)n1` (as salt: hydrochloride) [Example 139, 6-[4-(Indan-2-ylaminomethyl)-phenyl]-pyridin-2-ylamine]: the melting point was in the range of 185 to 187 °C.

For `Nc1cccc(-c2ccc(CCN3CC4C(C3)C4NCCc3ccccc3)cc2)n1` (stereo not shown) (as salt: hydrochloride) [Example 46, (3-{2-[4-(6-Amino-pyridin-2-yl)-phenyl]-ethyl}-3-aza-bicyclo[3.1.0]hex-6-yl)-phenethyl-amine], the melting point was 165 °C (dec.).

As for `Nc1cccc(-c2ccc(CCN3CC4CCC(C3)C4N)cc2)n1` (stereo not shown) (as salt: hydrochloride), the melting point is 235 °C (dec.).

`Nc1cccc(-c2ccc(CNCCc3ccccc3)cc2)n1` (as salt: hydrochloride) [Example 135, 6-[4-(Phenethylamino-methyl)-phenyl]-pyridin-2-ylamine]: the melting point fell in the range of 236 to 238 °C.

Consider `Nc1cccc(-c2ccc(CCN3CCC(NC(=O)NC4CCCCC4)C3)cc2)n1` (stereo not shown) (as salt: hydrochloride) [Example 74, 1-(1-{2-[4-(6-Amino-pyridin-2-yl)-phenyl]-ethyl}-pyrrolidin-3-yl)-3-cyclohexyl-urea], for which the melting point was 120 °C (dec.).

As for `Nc1cccc(-c2ccc(CN3CCCCC3)cc2)n1` (as salt: hydrochloride) [Example 138, 6-(4-Piperidin-1-ylmethyl-phenyl)-pyridin-2-ylamine], the melting point is greater than 250 °C.

In the case of `Nc1cccc(-c2ccc(CCN3CCN(C(=O)c4ccccc4)CC3)cc2)n1` [Example 25, (4-{2-[4-(6-Amino-pyridin-2-yl)-phenyl]-ethyl}-piperazin-1-yl)-phenyl-methanone], the melting point lay in the range of 125 to 127 °C.

Take `Cc1ccc(NC(=O)N2CCN(CCc3ccc(-c4cccc(N)n4)cc3)CC2)cc1C` [Example 41, 4-{2-[4-(6-Amino-pyridin-2-yl)-phenyl]-ethyl}-piperazine-1carboxylic acid (3,4-dimethyl-phenyl)-amide]: the melting point was in the range of 122 to 125 °C.

Turning to `Nc1cccc(-c2ccc(CCN3C4CCC3CC(N)C4)cc2)n1` (stereo not shown) (as salt: hydrochloride), the melting point was greater than 300 °C.

As to `CN1CCN(CCc2ccc(-c3cccc(N)n3)cc2)CC1` (as salt: hydrochloride) [Example 109, 6-{4-[2-(4-Methyl-piperazin-1-yl)-ethyl]-phenyl}-pyridin-2-ylamine], the melting point was 170 °C (dec.).

On to `CC(Cc1ccccc1)N1CCN(CCc2ccc(-c3cccc(N)n3)cc2)CC1` (stereo not shown) (as salt: hydrochloride) [Example 54, 6-(4-{2-[4-(1-Methyl-2-phenyl-ethyl)-piperazin-1-yl]-ethyl}-phenyl)-pyridin-2-ylamine], for which the melting point lay within 252 to 256 °C.

For the compound `Nc1cccc(-c2ccc(CCN3CCN(C4CCc5ccccc5C4)CC3)cc2)n1` (stereo not shown) (as salt: hydrochloride) [Example 55, 6-(4-{2-[4-(1,2,3,4-Tetrahydro-naphthalen-2-yl)-piperazin-1-yl]-ethyl}-phenyl)-pyridin-2-ylamine], the melting point is greater than 220 °C.

With `Nc1cccc(-c2ccc(CCN3CCc4ccccc4C3)cc2)n1` [Example 6, 6-{4-[2-(3,4-Dihydro-1H-isoquinolin-2-yl)-ethyl]-phenyl}-pyridin-2-ylamine], the melting point was 130 to 132 °C.

On to `Cc1cccc(N2CCN(CCc3ccc(-c4cccc(N)n4)cc3)CC2)c1` [Example 8, 6-{4-[2-(4-m-Tolyl-piperazin-1-yl)-ethyl]-phenyl}-pyridin-2-ylamine], for which the melting point fell in the range of 158 to 160 °C.

In turn, `CC(=O)N1CCN(CCc2ccc(-c3cccc(N)n3)cc2)CC1` [Example 10, 1-(4-{2-[4-(6-Amino-pyridin-2-yl)-phenyl]-ethyl}-piperazin-1-yl)-ethanone] registered a melting point of 201 to 203 °C.

Take `Nc1cccc(-c2ccc(CCN(CC3CCCCC3)CC3CCCCC3)cc2)n1` (as salt: salt) [Example 124, 6-{4-[2-(Bis-cyclohexylmethyl-amino)-ethyl]-phenyl}-pyridin-2-ylamine]: the melting point fell in the range of 75 to 85 °C.

Turning to `Nc1cccc(-c2ccc(CCN3CC4C(C3)C4NC(=O)Cc3ccc(F)cc3)cc2)n1` (stereo not shown) [Example 38, N-(3-{2-[4-(6-Amino-pyridin-2-yl)-phenyl]-ethyl}-3-aza-bicyclo[3.1.0]hex-6-yl)-2-(4-fluoro-phenyl)-acetamide], the melting point is 161 to 163 °C.

For the compound `Nc1cccc(-c2ccc(CCN3CCC(N)(C(=O)NCCc4ccccc4)CC3)cc2)n1` (as salt: hydrochloride) [Example 79, 4-Amino-1-{2-[4-(6-amino-pyridin-2-yl)-phenyl]-ethyl}-piperidine-4-carboxylic acid phenethyl-amide], the melting point was 215 to 219 °C (dec.).

For the compound `Nc1cccc(-c2ccc(CN3CC4C(N)C4C3)cc2)n1` (stereo not shown) (as salt: hydrochloride), the melting point is 189 to 192 °C (dec.).

Consider `Nc1cccc(-c2ccc(CCNC3C4CCCC3CN(Cc3ccccc3)C4)cc2)n1` (stereo not shown) (as salt: hydrochloride) [Example 84, {2-[4-(6-Amino-pyridin-2-yl)-phenyl]-ethyl}-(3-benzyl-3-aza-bicyclo[3.3.1]non-9-yl)-amine], for which the melting point was 190 °C (dec.).

Consider `CC(=O)N(CCc1ccc(-c2cccc(N)n2)cc1)C1CCN(Cc2ccccc2)CC1` (as salt: hydrochloride), for which the melting point is 60 to 70 °C (dec.).

`Nc1cccc(-c2ccc(CCN3CCN(C(=O)C(N)Cc4ccccc4)CC3)cc2)n1` (stereo not shown) (as salt: hydrochloride) [Example 61, 2-Amino-1-(4-{2-[4-(6-amino-pyridin-2-yl)-phenyl]-ethyl}-piperazin-1-yl)-3-phenyl-propan-1-one]: the melting point was 230 °C (dec.).

Consider `Nc1cccc(-c2ccc(CCN3CCN(C(=O)Oc4ccccc4)CC3)cc2)n1`, for which the melting point was in the range of 102 to 104 °C.

As for `Nc1cccc(-c2ccc(CCN(Cc3ccncc3)Cc3ccncc3)cc2)n1` (as salt: hydrochloride) [Example 120, 6-{4-[2-(Bis-pyridin-4-ylmethyl-amino)-ethyl]-phenyl}-pyridin-2-ylamine], the melting point is 150 to 163 °C (dec.).

`Nc1cccc(-c2ccc(CCN3CCN(CCCc4ccccc4)CC3)cc2)n1` (as salt: hydrochloride) [Example 40, 6-(4-{2-[4-(3-Phenyl-propyl)-piperazin-1-yl]-ethyl}-phenyl)-pyridin-2-ylamine] gave a melting point of 258 to 264 °C.

As for `Nc1cccc(-c2ccc(CCN3CCC(NC(=O)NCc4ccccc4)C3)cc2)n1` (stereo not shown) (as salt: hydrochloride) [Example 73, 1-(1-{2-[4-(6-Amino-pyridin-2yl)-phenyl]-ethyl}-pyrrolidin-3-yl)-3-benzyl-urea], the melting point was 90 °C (dec.).

On to `Nc1cccc(-c2ccc(CCN3CCN(C(=O)NCc4ccccc4)CC3)cc2)n1` [Example 47, 4-{2-[4-(6-Amino-pyridin-2-yl)-phenyl]-ethyl}-piperazine-1-carboxylic acid benzylamide], for which the melting point was 172 to 181 °C.

Regarding `Nc1cccc(-c2ccc(CCNC3CC4CCC(C3)N4Cc3ccc(F)cc3)cc2)n1` (stereo not shown) (as salt: hydrochloride), the melting point is 190 °C (dec.).

For `Nc1cccc(-c2ccc(CCN3CCN(c4nnnn4-c4ccc(F)cc4)CC3)cc2)n1` [Example 48, 6-[4-(2-{4-[1-(4-Fluoro-phenyl)-1H-tetrazol-5-yl]-piperazin-1-yl}-ethyl)-phenyl]-pyridin-2-ylamine], the melting point was 185 to 187 °C.
